According to publication PMC5154332 (Neuropharmacology, 2017):
“And” between values parts separate entries of the source, which are not always exact repeats. Equal values may be shown once. Read-outs that look alike come from different tables or passages of the source.

Experiments:
hNav1.4 – WT = hNav1.4 – WT (Homo sapiens, UniProt P35499); settings: cited from earlier work; for 0.1-to-10 Hz ratio: ratio of IC50 values
hNav1.4 channels = hNav1.4 channels (Homo sapiens, UniProt P35499); assay: cell-based
hNav1.4 channels, sequence (P35499 whole entry): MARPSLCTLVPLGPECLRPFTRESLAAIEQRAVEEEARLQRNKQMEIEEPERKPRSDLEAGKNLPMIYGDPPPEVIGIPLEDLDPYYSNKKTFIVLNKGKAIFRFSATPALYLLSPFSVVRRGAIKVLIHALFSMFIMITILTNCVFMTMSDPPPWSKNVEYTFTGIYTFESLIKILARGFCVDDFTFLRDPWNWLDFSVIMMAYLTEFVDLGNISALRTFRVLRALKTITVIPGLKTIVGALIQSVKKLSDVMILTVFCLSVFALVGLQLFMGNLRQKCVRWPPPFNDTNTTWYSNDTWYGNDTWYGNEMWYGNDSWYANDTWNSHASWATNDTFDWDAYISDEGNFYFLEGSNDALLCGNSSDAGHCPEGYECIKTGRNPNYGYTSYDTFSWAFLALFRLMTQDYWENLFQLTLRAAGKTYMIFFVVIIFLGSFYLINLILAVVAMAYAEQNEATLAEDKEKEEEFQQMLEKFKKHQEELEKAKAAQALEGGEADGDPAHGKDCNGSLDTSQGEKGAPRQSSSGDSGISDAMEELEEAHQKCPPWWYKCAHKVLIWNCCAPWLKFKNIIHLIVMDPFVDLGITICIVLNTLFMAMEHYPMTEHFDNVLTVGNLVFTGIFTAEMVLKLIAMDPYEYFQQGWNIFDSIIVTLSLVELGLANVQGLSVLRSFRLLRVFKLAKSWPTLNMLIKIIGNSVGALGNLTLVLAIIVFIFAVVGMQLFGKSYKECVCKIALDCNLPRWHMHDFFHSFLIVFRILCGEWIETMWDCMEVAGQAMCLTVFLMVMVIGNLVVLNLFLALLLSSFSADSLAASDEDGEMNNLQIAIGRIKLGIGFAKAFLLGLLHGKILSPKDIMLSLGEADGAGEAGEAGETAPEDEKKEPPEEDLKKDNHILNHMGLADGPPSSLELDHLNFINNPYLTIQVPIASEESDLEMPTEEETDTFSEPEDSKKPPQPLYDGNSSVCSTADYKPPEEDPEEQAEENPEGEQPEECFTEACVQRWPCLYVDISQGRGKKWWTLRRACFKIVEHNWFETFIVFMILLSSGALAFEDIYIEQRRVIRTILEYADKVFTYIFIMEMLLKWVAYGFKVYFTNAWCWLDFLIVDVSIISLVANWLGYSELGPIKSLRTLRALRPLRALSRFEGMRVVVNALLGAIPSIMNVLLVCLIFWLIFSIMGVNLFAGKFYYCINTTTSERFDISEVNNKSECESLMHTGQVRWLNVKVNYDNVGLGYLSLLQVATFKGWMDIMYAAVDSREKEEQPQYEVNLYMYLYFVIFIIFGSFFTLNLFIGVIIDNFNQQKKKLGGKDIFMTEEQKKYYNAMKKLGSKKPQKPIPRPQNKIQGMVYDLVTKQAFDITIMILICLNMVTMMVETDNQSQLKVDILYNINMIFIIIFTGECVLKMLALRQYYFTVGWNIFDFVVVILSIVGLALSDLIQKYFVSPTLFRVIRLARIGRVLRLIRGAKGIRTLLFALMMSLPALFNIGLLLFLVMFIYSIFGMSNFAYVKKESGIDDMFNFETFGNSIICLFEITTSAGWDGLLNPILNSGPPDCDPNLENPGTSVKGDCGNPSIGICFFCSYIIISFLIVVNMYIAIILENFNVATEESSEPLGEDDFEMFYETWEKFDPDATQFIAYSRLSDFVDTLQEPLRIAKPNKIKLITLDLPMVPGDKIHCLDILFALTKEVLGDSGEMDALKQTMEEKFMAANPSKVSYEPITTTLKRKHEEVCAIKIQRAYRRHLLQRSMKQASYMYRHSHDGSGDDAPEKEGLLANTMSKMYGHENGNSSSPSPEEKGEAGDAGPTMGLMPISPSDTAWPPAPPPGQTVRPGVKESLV

hNav1.4 - F1586C = hNav1.4 - F1586C (Homo sapiens, UniProt P35499, F1586C); settings: ref Desaphy et al., 2012, cited from earlier work
hNav1.4 - F1586C, sequence (P35499 whole entry F1586C): as the sequence (P35499 whole entry) above, with F1586C counted along it

hERG potassium channel = hERG potassium channel (Homo sapiens, UniProt Q12809); assay: Patch-clamp of hERG potassium currents in transfected tsA201 cells; type: cell-based
hERG potassium channel, sequence (Q12809 whole entry): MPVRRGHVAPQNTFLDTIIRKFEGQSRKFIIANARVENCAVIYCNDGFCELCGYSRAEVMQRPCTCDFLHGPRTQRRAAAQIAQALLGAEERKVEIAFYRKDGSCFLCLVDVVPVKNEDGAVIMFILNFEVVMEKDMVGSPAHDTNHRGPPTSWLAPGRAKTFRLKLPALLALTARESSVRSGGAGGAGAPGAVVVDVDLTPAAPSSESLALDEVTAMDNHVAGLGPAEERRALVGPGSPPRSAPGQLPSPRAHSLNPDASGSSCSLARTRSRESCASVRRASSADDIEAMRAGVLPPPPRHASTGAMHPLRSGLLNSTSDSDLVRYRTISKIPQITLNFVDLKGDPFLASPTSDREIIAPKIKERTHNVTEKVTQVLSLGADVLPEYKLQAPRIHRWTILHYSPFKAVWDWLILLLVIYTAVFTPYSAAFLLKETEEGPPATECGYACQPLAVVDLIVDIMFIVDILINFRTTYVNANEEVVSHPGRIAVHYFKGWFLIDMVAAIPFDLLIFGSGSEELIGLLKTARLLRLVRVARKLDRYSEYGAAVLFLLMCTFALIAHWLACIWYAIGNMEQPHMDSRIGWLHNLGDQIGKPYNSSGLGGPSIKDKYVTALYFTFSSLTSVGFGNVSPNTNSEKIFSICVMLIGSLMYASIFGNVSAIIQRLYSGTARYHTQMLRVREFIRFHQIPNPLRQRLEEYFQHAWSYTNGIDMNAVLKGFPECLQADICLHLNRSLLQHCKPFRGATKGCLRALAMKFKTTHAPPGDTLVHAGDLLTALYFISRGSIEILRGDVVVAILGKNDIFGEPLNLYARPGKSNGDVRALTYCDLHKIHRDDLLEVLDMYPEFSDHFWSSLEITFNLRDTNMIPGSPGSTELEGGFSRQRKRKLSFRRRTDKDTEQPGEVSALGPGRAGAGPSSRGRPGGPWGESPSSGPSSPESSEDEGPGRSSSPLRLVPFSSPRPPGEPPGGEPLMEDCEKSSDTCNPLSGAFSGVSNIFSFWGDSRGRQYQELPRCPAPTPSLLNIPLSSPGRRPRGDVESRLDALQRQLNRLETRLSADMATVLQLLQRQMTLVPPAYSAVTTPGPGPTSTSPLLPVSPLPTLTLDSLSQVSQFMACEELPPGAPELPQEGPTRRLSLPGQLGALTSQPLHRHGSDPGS

rat model of myotonia = assay: In vivo antimyotonic activity, time of righting reflex
[1] = humans; ref Lalka et al., 1976; cited from earlier work
HeLa = settings: 100 μM; ref Ghelardini et al., 2010; cited from earlier work
MRC-5 = settings: 100 μM; ref Ghelardini et al., 2010; cited from earlier work
[2] = test system: murine C2C12 skeletal muscle cells; assay: In vitro cytotoxicity, CCK-8 cell viability; type: cell-based; settings: C2C12, 6 h, from 100 μM to 1 mM
[3] = current at end of first voltage step

hNav1.4 – WT, sequence (P35499 whole entry): as the sequence (P35499 whole entry) above

SMILES: Cc1cccc(C)c1OCC(C)N (stereo not drawn) [Mexiletine, mexiletine]
- Tonic block (0.1 Hz) nH (hNav1.4 – WT; ref Desaphy et al., 2012): 0.9 ± 0.1
- Phasic block (10 Hz) nH (hNav1.4 – WT; ref Desaphy et al., 2012): 0.8 ± 0.1
- 0.1-to-10 Hz ratio (hNav1.4 – WT; ref Desaphy et al., 2012): 10.3
- IC50 (hNav1.4 – WT; read-out: Phasic block (10 Hz) IC50, 10 Hz, ref Desaphy et al., 2012): 24 ± 2 µM
- In vitro nH (hNav1.4 channels): 1.2 ± 0.2
- IC50 (hNav1.4 channels; In vitro IC50): 17 µM and 16.9 µM
- Tonic block (0.1 Hz) nH (hNav1.4 - F1586C; 0.1 Hz): 1.1 ± 0.1
- Phasic block (10 Hz) nH (hNav1.4 - F1586C; 10 Hz): 1.0 ± 0.2
- 0.1-to-10 Hz ratio (hNav1.4 - F1586C; ratio of IC50 values): 1.2
- concentration at which inhibition of hERG currents was complete (hERG potassium channel; [3]): 1000 µM
- concentrations at which inhibition of hERG currents was observed (hERG potassium channel; [3]): greater than 1 μM
- IC50 (hERG potassium channel; hERG IC50, tail currents at −50 mV after test depolarization at −10 mV): 43 µM
- ratio between hERG and hNav1.4 (myotonia-like condition) IC50 (hERG potassium channel; hERG IC50 versus hNav1.4 IC50 at 50 Hz): 2.5 fold
- hERG nH (hERG potassium channel; tail currents, Hill slope factor): 0.79 ± 0.07
- In vivo Min (rat model of myotonia; minimal TRR value of the dose-response fit): 18.0 ± 7.3%
- maximal TRR reduction (rat model of myotonia; oral, from dose-response fit): ~80%

SMILES: Cc1cccc(C)c1NC(=O)C(C)N (stereo not drawn) [Tocainide, tocainide]
- oral bioavailability [1]: ~100%
- plasma protein bound [1]: ~50%
- Tonic block (0.1 Hz) nH (hNav1.4 – WT; ref Ghelardini et al., 2010): 1.0 ± 0.1
- Phasic block (10 Hz) nH (hNav1.4 – WT; ref Ghelardini et al., 2010): 1.1 ± 0.2
- 0.1-to-10 Hz ratio (hNav1.4 – WT; ref Ghelardini et al., 2010): 3.8
- HeLa cell viability (HeLa): reduction
- MRC-5 cell viability (MRC-5): reduction
- reduction of cell viability [2]: about 20%
